Key:
[1] = system: inflammatory responses elicited by topically applied phorbol myristate acetate (PMA) or topically applied archidonic acid (AA) in mouse ear; experiment: Topical mouse ear assay (TME); format: in vivo, mice
Protocol: The topical mouse ear assay (TME) was used to evaluate the novel compounds of the present invention for its effect on inflammatory responses elicited by topically applied phorbol myristate acetate (PMA) or topically applied archidonic acid (AA).
TABLE I Topical Mouse Ear Assay
Method: The right ears of mice (5 mice per group) were treated topically with either […] or 1000 μg AA alone or with the test compound in 25 μl of vehicle. The vehicle was water/pyridine/acetone (1:2:97). A control group of mice received the vehicle only. The mice were allowed food and water ad libitum during the treatment period; 2 hours for AA and 4 hours for PMA. The mice were sacrificed by cervical dislocation and a 6 mm diameter disc of tissue punched from both the treated and untreated ears. The tissue biopsies were immediately weighed and the weight increase of the treated ear relative to the weight of the untreated ear determined.
At the termination of the experiment, the amount of radioactivity in both the treated and untreated ear biopsies was determined and the increased amount of radioactivity in the treated tissue relative to the amount of radioactive in the untreated tissue determined.
As a measure of PMN infiltration, the amount of myeloperoxidase (MPO) activity in the same tissues was determined. The tissue biopsies were homogenized into 1 ml 0.5% hexadecyltrimethylammonium bromide and centrifuged for 45 min. at 1200×g. Aliquots 40 μl, of the supernatant phases were assayed for MPO activity by a colorimetric method devised by H. Dougherty for automated Titertek analysis. The MPO activity is expressed as the OD450 of the treated ear homogenate minus the OD450 of the non-treated ear homogenate.
All of the data are expressed as the mean±SEM, N=5 mice/group.

[2] = system: inflammatory responses elicited by topically applied phorbol myristate acetate (PMA) or topically applied archidonic acid (AA) in mouse ear; conditions: previously established, in words; cited from earlier work

Compound | Edema (% inhibition) ([1]; dosage 150 μg) [%] | activity in the topical mouse ear assay [2] | Edema (% inhibition) ([1]; dosage 50 μg) [%] | Edema (% inhibition) ([1]; dosage 300 μg) [%] | Edema (% inhibition) ([1]; dosage 5 μg) [%]
COc1ccc2c(c1)c(CC(=O)O)c(C)n2C(=O)c1ccc(Cl)cc1 [Indomethacin] | 51 | active | – | – | –
OCc1ccccc1/C=C/Cc1cc2c(cc1O)CCO2 [A, 5-hydroxy-6-(2-hydroxymethylcinnamyl)-2,3-dihydrobenzofuran] | 54 | – | 37 | 88 | –
C[C@@H]1C[C@H]2[C@@H]3CCC4=CC(=O)C=C[C@]4(C)[C@@]3(F)[C@@H](O)C[C@]2(C)[C@@]1(O)C(=O)CO [Dexamethasone] | – | active | – | – | 60
